From patent publication US20170008921A1, “C-3 NOVEL TRITERPENONE WITH C-28 REVERSE AMIDE DERIVATIVES AS HIV INHIBITORS” (HETERO RESEARCH FOUNDATION, priority 2015, published 2017)
Where a name gives a salt, the structure may show the parent alone. Read-outs that look alike come from different tables or passages of the source.

Tests used:
[1] = Single dose oral pharmacokinetic study; format: in vivo; conditions: mouse, Mice oral PK @30 mg/kg, plasma, vehicle 10% Solutol+20% PEG; for AUC(0-t): read-out: AUC0-t; for Cmax: read-out: Cmax
Method: The test item was administered through oral route to animals (rat/mice) at 30 mg/kg dose in a suitable vehicle (10% Solutol+20% PEG) at 10 ml/kg dose volume. Blood samples (˜50 μL at each time point) were collected from retro-orbital plexus using K3 EDTA as anticoagulant in eppendorf tubes at defined time intervals 30 minutes, 1 hour, 2 hour, 4 hour, 8 hour, 24 hour & 48 hour under light ether anaesthesia. The samples were centrifuged at 3500×g to separate plasma and stored at −80° C. until analysis. Plasma 25 μl for Mice were processed as per described in sample preparation.
Standard solutions of the test compound 1 mg/mL solutions were prepared in DMSO and further dilutions were made in methanol. […] To the test compound plasma extraction was carried out using Acetonitrile precipitation. After reconstitution with solvent (50% Acetonitrile in Buffer) samples were analyzed by LCMSMS to get the concentrations to calculate PK Parameters.

[2] = Cyto-toxicity (MTT assay); format: cell-based
Method: On day 1 calculate the number of cells required for the assay and seed 3×10^4 cells in 200 μl per well. Weigh the compound and dissolve it in DMSO to get 10 mM stock which is further diluted to 3 mM and 1 mM. […] Add DMSO to controls in a way to obtain final concentration of solvent that is not greater than 1%. Incubate for 4 days in 5% CO2 incubator at 37° C. On day 4, 100 μl of medium was removed from each well without disturbing the cells. Add 10 μl of MTT reagent and incubate for 4 hours at 5% CO2 incubator at 37° C. for formation of crystals. Add 200 μl of 0.1N acidic isopropanol to dissolve the crystals and read the plate at 590 nm. The values are mentioned in below Table-3 and Table-3A.

| Compound | AUC(0-t) [1] | Cmax [1] | viability at 4 days, 0.01 µM [2] | viability at 4 days, 0.1 µM [2] | viability at 4 days, 1 µM [2] | further results |
| --- | --- | --- | --- | --- | --- | --- |
| Cc1cc(C(=O)NC(C)(C)C(=O)N[C@@]23CC[C@]4(C)[C@H](CC[C@@H]5[C@@]6(C)CC[C@H](OC(=O)[C@H]7C[C@@H](C(=O)O)C7(C)C)C(C)(C)[C@@H]6CC[C@]54C)C2=C(C(C)C)C(=O)C3)c(C)o1 [Example 33, (1R,3S)-3-((((3aR,5aR,5bR,7aR,9S,11aR,11bR,13aS)-3a-(2-(2,5-dimethylfuran-3-carboxamido)-2-methylpropanamido)-1-isopropyl-5a,5b,8,8,11a-pentamethyl-2-oxo-3,3a,4,5,5a,5b,6,7,7a,8,9,10,11,11a,11b,12,13,13a-octadecahydro-2H-cyclopenta[a]chrysen-9-yl)oxy)carbonyl)-2,2-dimethylcyclobutane-1-carboxylic acid] | 231 µg·h/mL | 11400 ng/mL | – | – | – | – |
| CC(C)C1=C2[C@H]3CC[C@@H]4[C@@]5(C)CC[C@H](OC(=O)[C@H]6C[C@@H](C(=O)O)C6(C)C)C(C)(C)[C@@H]5CC[C@@]4(C)[C@]3(C)CC[C@@]2(NC(=O)C2(NC(=O)c3ccc(F)cc3)CC2)CC1=O [Example 39, (1R,3S)-3-((((3aR,5aR,5bR,7aR,9S,11aR,11bR,13aS)-3a-(1-(4-fluorobenzamido)cyclopropane-1-carboxamido)-1-isopropyl-5a,5b,8,8,11a-pentamethyl-2-oxo-3,3a,4,5,5a,5b,6,7,7a,8,9,10,11,11a,11b,12,13,13a-octadecahydro-2H-cyclopenta[a]chrysen-9-yl)oxy)carbonyl)-2,2-dimethylcyclobutane-1-carboxylic acid] | – | – | 29% | 2% | 0% | – |
| CC(C)C1=C2[C@H]3CC[C@@H]4[C@@]5(C)CC[C@H](OC(=O)[C@H]6C[C@@H](C(=O)O)C6(C)C)C(C)(C)[C@@H]5CC[C@@]4(C)[C@]3(C)CC[C@@]2(NC(=O)C2(NC(=O)c3cccnc3N3CCOCC3)CCC2)CC1=O [Example 45, (1R,3S)-3-((((3aR,5aR,5bR,7aR,9S,11aR,11bR,13aS)-1-isopropyl-5a,5b,8,8,11a-pentamethyl-3a-(1-(2-morpholinonicotinamido)cyclobutane-1-carboxamido)-2-oxo-3,3a,4,5,5a,5b,6,7,7a,8,9,10,11,11a,11b,12,13,13a-octadecahydro-2H-cyclopenta[a]chrysen-9-yl)oxy)carbonyl)-2,2-dimethylcyclobutane-1-carboxylic acid] | 214 µg·h/mL | 21200 ng/mL | – | – | – | – |
| Cc1ccc(C(=O)NC2(C(=O)N[C@@]34CC[C@]5(C)[C@H](CC[C@@H]6[C@@]7(C)CC[C@H](OC(=O)[C@H]8C[C@@H](C(=O)O)C8(C)C)C(C)(C)[C@@H]7CC[C@]65C)C3=C(C(C)C)C(=O)C4)CCCCC2)cn1 [Example 49, (1R,3S)-3-((((3aR,5aR,5bR,7aR,9S,11aR,11bR,13aS)-1-isopropyl-5a,5b,8,8,11a-pentamethyl-3a-(1-(6-methylnicotinamido)cyclohexane-1-carboxamido)-2-oxo-3,3a,4,5,5a,5b,6,7,7a,8,9,10,11,11a,11b,12,13,13a-octadecahydro-2H-cyclopenta[a]chrysen-9-yl)oxy)carbonyl)-2,2-dimethylcyclobutane-1-carboxylic acid] | – | – | 56% | 12% | 4% | – |
| CC(C)C1=C2[C@H]3CC[C@@H]4[C@@]5(C)CC[C@H](OC(=O)[C@H]6C[C@@H](C(=O)O)C6(C)C)C(C)(C)[C@@H]5CC[C@@]4(C)[C@]3(C)CC[C@@]2(NC(=O)C(C)(C)NC(=O)[C@H]2CCCNC2)CC1=O [Example 52, (1R,3S)-3-((((3aR,5aR,5bR,7aR,9S,11aR,11bR,13aS)-1-isopropyl-5a,5b,8,8,11a-pentamethyl-3a-(2-methyl-2-((S)-piperidine-3-carboxamido)propan amido)-2-oxo-3,3a,4,5,5a,5b,6,7,7a,8,9,10,11,11a,11b,12,13,13a-octadecahydro-2H-cyclopenta[a]chrysen-9-yl)oxy)carbonyl)-2,2-dimethylcyclobutane-1-carboxylic acid hydrochloride] | – | – | – | – | – | viability at 4 days, 0.001 µM ([2]; 0.001 μM, MTT, 4 days (Table 3A), read-out: Cytotoxicity % viability): 83%; viability at 4 days, 0.003 µM ([2]; 0.003 μM, MTT, 4 days (Table 3A), read-out: Cytotoxicity % viability): 89%; viability at 4 days, 0.01 µM ([2]; 0.01 μM, MTT, 4 days (Table 3A), read-out: Cytotoxicity % viability): 59% |
| CC(C)C1=C2[C@H]3CC[C@@H]4[C@@]5(C)CC[C@H](OC(=O)[C@H]6C[C@@H](C(=O)O)C6(C)C)C(C)(C)[C@@H]5CC[C@@]4(C)[C@]3(C)CC[C@@]2(NC(=O)C(C)(C)NC(=O)Cc2ccc(Cl)cc2)CC1=O [Example 53, (1R,3S)-3-((((3aR,5aR,5bR,7aR,9S,11aR,11bR,13aS)-3a-(2-(2-(4-chlorophenyl)acetamido)-2-methylpropanamido)-1-isopropyl-5a,5b,8,8,11a-pentamethyl-2-oxo-3,3a,4,5,5a,5b,6,7,7a,8,9,10,11,11a,11b,12,13,13a-octadecahydro-2H-cyclopenta[a]chrysen-9-yl)oxy)carbonyl)-2,2-dimethylcyclobutane-1-carboxylic acid] | 57.8 µg·h/mL | 9750 ng/mL | – | – | – | – |
| CC(C)C1=C2[C@H]3CC[C@@H]4[C@@]5(C)CC[C@H](OC(=O)[C@H]6C[C@@H](C(=O)O)C6(C)C)C(C)(C)[C@@H]5CC[C@@]4(C)[C@]3(C)CC[C@@]2(NC(=O)C(C)(C)NC(=O)c2cnn3cccnc23)CC1=O [Example 54, (1R,3S)-3-((((3aR,5aR,5bR,7aR,9S,11aR,11bR,13aS)-1-isopropyl-5a,5b,8,8,11a-pentamethyl-3a-(2-methyl-2-(pyrazolo[1,5-a]pyrimidine-3-carboxamido)propanamido)-2-oxo-3,3a,4,5,5a,5b,6,7,7a,8,9,10,11,11a,11b,12,13,13a-octadecahydro-2H-cyclopenta[a]chrysen-9-yl)oxy)carbonyl)-2,2-dimethylcyclobutane-1-carboxylic acid] | 402 µg·h/mL | 29200 ng/mL | – | – | – | – |
| CC(C)C1=C2[C@H]3CC[C@@H]4[C@@]5(C)CC[C@H](OC(=O)[C@H]6C[C@@H](C(=O)O)C6(C)C)C(C)(C)[C@@H]5CC[C@@]4(C)[C@]3(C)CC[C@@]2(NC(=O)C(C)(C)NS(C)(=O)=O)CC1=O [Example 63, sodium (1R,3S)-3-((((3aR,5aR,5bR,7aR,9S,11aR,11bR,13aS)-1-isopropyl-5a,5b,8,8,11a-pentamethyl-3a-(2-methyl-2-(methylsulfonamido)propanamido)-2-oxo-3,3a,4,5,5a,5b,6,7,7a,8,9,10,11,11a,11b,12,13,13a-octadecahydro-2H-cyclopenta[a]chrysen-9-yl)oxy)carbonyl)-2,2-dimethylcyclobutane-1-carboxylate] | – | – | 51% | 16% | 0% | – |
| CC(C)C1=C2[C@H]3CC[C@@H]4[C@@]5(C)CC[C@H](OC(=O)[C@H]6C[C@@H](C(=O)O)C6(C)C)C(C)(C)[C@@H]5CC[C@@]4(C)[C@]3(C)CC[C@@]2(NC(=O)C(C)(C)NCC2(c3ccc(Cl)cc3)CC2)CC1=O [Example 69, (1R,3S)-3-((((3aR,5aR,5bR,7aR,9S,11aR,11bR,13aS)-3a-(2-(((1-(4-chlorophenyl)cyclopropyl)methyl)amino)-2-methylpropanamido)-1-isopropyl-5a,5b,8,8, 11a-pentamethyl-2-oxo-3,3a,4,5,5a,5b,6,7,7a,8,9,10,11,11a,11b,12,13,13a-octadecahydro-2H-cyclopenta[a]chrysen-9-yl)oxy)carbonyl)-2,2-dimethylcyclobutane-1-carboxylic acid] | – | – | 42% | 8% | 8% | – |
| CC(C)C1=C2[C@H]3CC[C@@H]4[C@@]5(C)CC[C@H](OC(=O)[C@H]6C[C@@H](C(=O)O)C6(C)C)C(C)(C)[C@@H]5CC[C@@]4(C)[C@]3(C)CC[C@@]2(NC(=O)C(C)(C)NCCN(C)C)CC1=O [Example 73, (1R,3S)-3-((((3aR,5aR,5bR,7aR,9S,11aR,11bR,13aS)-3a-(2-((2-(dimethylamino)ethyl)amino)-2-methylpropanamido)-1-isopropyl-5a,5b,8,8,11a-pentamethyl-2-oxo-3,3a,4,5,5a,5b,6,7,7a,8,9,10,11,11a,11b,12,13,13a-octadecahydro-2H-cyclopenta[a]chrysen-9-yl)oxy)carbonyl)-2,2-dimethylcyclobutane-1-carboxylic acid] | – | – | 52% | 11% | 9% | – |
| CC(C)C1=C2[C@H]3CC[C@@H]4[C@@]5(C)CC[C@H](OC(=O)[C@H]6C[C@@H](C(=O)O)C6(C)C)C(C)(C)[C@@H]5CC[C@@]4(C)[C@]3(C)CC[C@@]2(NC(=O)C(C)(C)NC(=O)OC(C)(C)C)CC1=O [Example 75, (1R,3S)-3-((((3aR,5aR,5bR,7aR,9S,11aR,11bR,13aS)-3a-(2-((tert-butoxycarbonyl)amino)-2-methylpropanamido)-1-isopropyl-5a,5b,8,8,11a-pentamethyl-2-oxo-3,3a,4,5,5a,5b,6,7,7a,8,9,10,11,11a,11b,12,13,13a-octadecahydro-2H-cyclopenta[a]chrysen-9-yl)oxy)carbonyl)-2,2-dimethylcyclobutane-1-carboxylic acid] | – | – | 63% | 17% | 2% | – |
